From PubChem BioAssay (NCI)
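Grown in 96-well plates, cells were treated for 48 hours with each compound at five concentrations. Insufficient inhibition: endpoint recorded as highest concentration tested. The concentration for 50% growth inhibition is given as GI50. TGI: total growth inhibition.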

Assays:
Assay in all cases: NCI tumour cell line growth inhibition, 48 h
[1] = test system: 786-0 renal
[2] = test system: A498 renal
[3] = test system: A549 NSCLC
[4] = test system: ACHN renal
[5] = test system: BT-549 breast
[6] = test system: CAKI-1 renal
[7] = test system: CCRF-CEM leukemia
[8] = test system: COLO 205 colon
[9] = test system: DU-145 prostate
[10] = test system: EKVX NSCLC
[11] = test system: HCC-2998 colon
[12] = test system: HCT-116 colon
[13] = test system: HCT-15 colon
[14] = test system: HL-60(TB) leukemia
[15] = test system: HOP-62 NSCLC
[16] = test system: HOP-92 NSCLC
[17] = test system: HS 578T breast
[18] = test system: HT29 colon
[19] = test system: IGROV1 ovarian
[20] = test system: K-562 leukemia
[21] = test system: KM12 colon
[22] = test system: LOX IMVI melanoma
[23] = test system: MALME-3M melanoma
[24] = test system: MCF7 breast
[25] = test system: MDA-MB-231 breast
[26] = test system: MDA-MB-435
[27] = test system: MOLT-4 leukemia
[28] = test system: NCI-H226 lung
[29] = test system: NCI-H23 lung
[30] = test system: NCI-H460 lung
[31] = test system: NCI-H522 lung
[32] = test system: NCI/ADR-RES ovarian
[33] = test system: OVCAR-3 ovarian
[34] = test system: OVCAR-4 ovarian
[35] = test system: OVCAR-5 ovarian
[36] = test system: OVCAR-8 ovarian
[37] = test system: PC-3 prostate
[38] = test system: RPMI-8226 leukemia
[39] = test system: RXF 393 renal
[40] = test system: SF-268 CNS
[41] = test system: SF-295 CNS
[42] = test system: SF-539 CNS
[43] = test system: SK-MEL-2 melanoma
[44] = test system: SK-MEL-28 melanoma
[45] = test system: SK-MEL-5 melanoma
[46] = test system: SK-OV-3 ovarian
[47] = test system: SN12C renal
[48] = test system: SNB-19 CNS
[49] = test system: SNB-75 CNS
[50] = test system: SR leukemia
[51] = test system: SW-620 colon
[52] = test system: T-47D breast
[53] = test system: TK-10 renal
[54] = test system: U251 CNS
[55] = test system: UACC-257 melanoma
[56] = test system: UACC-62 melanoma
[57] = test system: UO-31 renal

C#CCN(C)CCCOc1ccc(NC(=O)CCCCCCC(=O)NO)cc1Cl
GI50 [1]: 3.52 µM
TGI [1]: 25.7 µM
GI50 [2]: 1.16 µM
TGI [2]: 3.04 µM
GI50 [3]: 2.14 µM
TGI [3]: 13.6 µM
GI50 [4]: 2.82 µM
TGI [4]: 12.7 µM
GI50 [5]: 3.48 µM
TGI [5]: 30 µM
GI50 [6]: 1.65 µM
TGI [6]: 8.08 µM
GI50 [7]: 0.375 µM
TGI [7]: > 100 µM
GI50 [8]: 0.648 µM
TGI [8]: 2.45 µM
GI50 [9]: 1.68 µM
TGI [9]: > 100 µM
GI50 [10]: 3.47 µM
TGI [10]: > 100 µM
GI50 [11]: 1.47 µM
TGI [11]: 4.23 µM
GI50 [12]: 0.437 µM
TGI [12]: 6.26 µM
GI50 [13]: 5.03 µM
TGI [13]: > 100 µM
GI50 [14]: 0.589 µM
TGI [14]: > 100 µM
GI50 [15]: 1.85 µM
TGI [15]: 24 µM
GI50 [16]: 0.725 µM
TGI [16]: 4.56 µM
GI50 [17]: 1.15 µM
TGI [17]: 7.31 µM
GI50 [18]: 1.42 µM
TGI [18]: 43 µM
GI50 [19]: 1.23 µM
TGI [19]: 4.34 µM
GI50 [20]: 0.549 µM
TGI [20]: > 100 µM
GI50 [21]: 1.91 µM
TGI [21]: 15.9 µM
TGI [22]: 0.12 µM
GI50 [23]: 0.373 µM
TGI [23]: 28.4 µM
GI50 [24]: 0.813 µM
TGI [24]: 17.4 µM
GI50 [25]: 1.83 µM
TGI [25]: 16.4 µM
GI50 [26]: 0.835 µM
TGI [26]: 5.97 µM
GI50 [27]: 0.338 µM
TGI [27]: > 100 µM
GI50 [28]: 4.13 µM
TGI [28]: 30.6 µM
GI50 [29]: 2.44 µM
TGI [29]: 18.9 µM
GI50 [30]: 1.1 µM
TGI [30]: > 100 µM
GI50 [31]: 0.431 µM
TGI [31]: 8.2 µM
GI50 [32]: 5.41 µM
TGI [32]: > 100 µM
GI50 [33]: 1.48 µM
TGI [33]: 13.2 µM
GI50 [34]: 4.41 µM
TGI [34]: > 100 µM
GI50 [35]: 1.7 µM
TGI [35]: 45.7 µM
GI50 [36]: 0.793 µM
TGI [36]: > 100 µM
GI50 [37]: 1.53 µM
TGI [37]: > 100 µM
GI50 [38]: 1.05 µM
TGI [38]: 6.78 µM
GI50 [39]: 0.272 µM
TGI [39]: 1.11 µM
GI50 [40]: 2.92 µM
TGI [40]: 16.4 µM
GI50 [41]: 1.68 µM
TGI [41]: 4.71 µM
GI50 [42]: 1.66 µM
TGI [42]: 17 µM
GI50 [43]: 3.05 µM
TGI [43]: 21.8 µM
GI50 [44]: 1.44 µM
TGI [44]: 11.3 µM
GI50 [45]: 0.853 µM
TGI [45]: 2.43 µM
GI50 [46]: 1.54 µM
TGI [46]: 12.6 µM
GI50 [47]: 2.78 µM
TGI [47]: > 100 µM
GI50 [48]: 2.26 µM
TGI [48]: 17.7 µM
GI50 [49]: 0.606 µM
TGI [49]: 32.1 µM
GI50 [50]: 0.53 µM
TGI [50]: > 100 µM
GI50 [51]: 0.698 µM
TGI [51]: 4.31 µM
GI50 [52]: 0.608 µM
TGI [52]: > 100 µM
GI50 [53]: 1.41 µM
TGI [53]: 11 µM
GI50 [54]: 1.41 µM
TGI [54]: 7.21 µM
GI50 [55]: 0.587 µM
TGI [55]: 13.4 µM
GI50 [56]: 0.57 µM
TGI [56]: 4.18 µM
GI50 [57]: 1.5 µM
TGI [57]: 7.04 µM
